Several values for one entry are separate records, joined by “and”; a condition that tells them apart may be missing. Equal entries are not always repeated.
Legend:
Hep G2 cells [1] = assay: Annexin V-FITC/PI flow cytometry (apoptosis), Hep G2; assay type: cell-based, human; conditions: Hep G2, 72 h at IC50 concentration, mean ± S.E.M.
Experimental: (§1) In consideration of the cytotoxic results of these triterpene conjugates with the three cell lines assayed, three MA–diamine–coumarin conjugates (1, 4, and 7) and the MA–coumarin conjugate 10 were selected for the following cytometry studies on the three cancer cell lines. Thus, the apoptotic determination assays were performed through double staining with Annexin V (An-V), conjugated fluorescein isothiocyanate (FITC), and propidium iodide (PI). […] The values of percentage of total apoptosis were expressed as means ± SEM of at least two duplicate experiments (Figure 1).
(§2) Apoptosis was assessed by flow cytometry using a FACScan (fluorescence-activated cell sorter) flow cytometer (Coulter Corporation, Hialeah, FL, USA). For these assays, 5 × 10^4 B16–F10, 6 × 10^4 HT29 cells, and 15 × 10^4 Hep G2 cells were placed in 24-well plates with 1.5 mL of medium and incubated for 24 h. Subsequently, the cells were treated with the selected compounds in triplicate for 72 h at their corresponding IC50 concentrations. The cells were collected and resuspended in a binding buffer (10 mM HEPES/NaOH, pH 7.4, 140 mM NaCl, 2.5 mM CaCl2). Annexin V-FITC conjugate (1 mg/mL) was then added and incubated for 15 min at room temperature in darkness. Just before the analysis by flow cytometry, cells were stained with 20 μL of 1 mg/mL PI solution. In each experiment, approximately 10 × 10^3 cells were analyzed, and the experiment was duplicated twice.

HT29 cells = assay: Cell-cycle distribution by PI flow cytometry, HT29; assay type: cell-based, human; conditions: HT29, 72 h at IC50 concentration
Experimental: (§3) Based on the cytotoxicity shown by derivatives 1, 4, 7, and 10, a study was made concerning their effects on the distribution of the cell cycle in order to determine possible cytostatic effects caused by the cytotoxic response. The percentages of cells in the different phases of the cycle were analyzed at 72 h, by the incorporation of propidium iodide. […] The values of cell percentage were expressed as means ± SEM of at least two independent experiments performed in triplicate. Flow cytometry was also used to measure DNA ploidy and alterations in cell-cycle profiles. The DNA content is proportional to the fluorescence of propidium iodide, enabling the percentage of cells to be determined in each phase of the cycle and the cell subpopulations with different DNA contents to be visualized.
(§4) The method used to quantify the amount of DNA in the different phases of the cell cycle (G0/G1, S, and G2/M) was performed by flow cytometry, using a fluorescence-activated cell sorter (FACS) at 488 nm in an Epics XL flow cytometer (Coulter Corporation, Hialeah, FL, USA). For this assay, 5 × 10^4 B16–F10, 6 × 10^4 HT29 cells, and 15 × 10^4 Hep G2 cells were placed in 24-well plates with 1.5 mL of medium and incubated for 24 h. After this time, the cells were treated with the different selected compounds for 72 h at their corresponding IC50 concentrations. After treatment, the cells were washed twice with PBS, trypsinized, and resuspended in 1X TBS (10 mM Tris and 150 mM NaCl); thereafter, Vindelov buffer (100 mM Tris, 100 mM NaCl, 10 mg/mL Rnase, and 1 mg/mL PI, at pH 8) was added. Cells were stored on ice and, just before measurement, were stained with 10 μL of 1 mg/mL PI solution. Approximately, 10 × 10^3 cells were analyzed in each experiment. The experiments were performed three times with two replicates per assay.

Hep G2 cells [2] = assay: Mitochondrial-membrane potential (Rh123) flow cytometry, Hep G2; assay type: cell-based, human; conditions: Hep G2, 72 h at IC50 concentration
Experimental: The study of the loss of the mitochondrial-membrane potential (MMP) of tumor cells, when treated with drugs, can provide information on the activation mechanism of apoptosis. This activation can occur extrinsically when MMP is not altered, and intrinsically when a loss of this potential is caused by mitochondrial disruption. […] The values of percentage of cell population were expressed as means ± SEM of at least two experiments in duplicate. Changes in MMP were analyzed by monitoring cell fluorescence after staining with rhodamine 123 (Rh123).
The electrochemical gradient across the mitochondrial membrane was examined by analytical flow cytometry, using dihydrorhodamine (DHR), which in contact with living cells, oxidized to form highly fluorescent rhodamine 123 (Rh123). The fluorescence emitted can be monitored by fluorescence spectroscopy using excitation and emission wavelengths of 500 and 536 nm, respectively. […] Following treatment, the culture medium was renewed with fresh medium by adding 0.5 mL of DHR, for a final concentration of […]. Cells were incubated for 1 h at 37 °C in an atmosphere of 5% CO2 and 95% humidity and subsequently washed and resuspended in PBS. The fluorescence intensity was measured using a FACScan flow cytometer (fluorescence-activated cell sorter). The experiments were performed three times with two replicates per assay.

B16–F10 cells [3] = assay: Annexin V-FITC/PI flow cytometry (apoptosis), B16–F10; assay type: cell-based, murine; conditions: B16-F10, 72 h at IC50 concentration, mean ± S.E.M.
Experimental: as §1, §2

B16–F10 cells [4] = assay: Cell-cycle distribution by PI flow cytometry, B16–F10; assay type: cell-based, murine; conditions: B16–F10, 72 h at IC50 concentration
Experimental: as §3, §4

Hep G2 cells [5] = assay: Cell-cycle distribution by PI flow cytometry, Hep G2; assay type: cell-based, human; conditions: Hep G2, 72 h at IC50 concentration
Experimental: as §3, §4

SMILES	melting point [°C]	Early Apoptosis (Hep G2 cells [1]) [%]	Late Apoptosis (Hep G2 cells [1]) [%]	Necrosis (Hep G2 cells [1]) [%]	Total Apoptosis (Hep G2 cells [1])	Viable Cells (Hep G2 cells [1]) [%]	percentage of cells in the G0/G1 phase (HT29 cells)	Rh123 staining (mitochondrial-membrane potential) (Hep G2 cells [2])	Early Apoptosis (B16–F10 cells [3]) [%]	Late Apoptosis (B16–F10 cells [3]) [%]	Necrosis (B16–F10 cells [3]) [%]	Total Apoptosis (B16–F10 cells [3])	Viable Cells (B16–F10 cells [3]) [%]	percentage of cells in the G0/G1 phase (B16–F10 cells [4])	percentage of cells in the G0/G1 phase (Hep G2 cells [5])
CC1(C)CC[C@]2(C(=O)O)CC[C@]3(C)C(=CC[C@@H]4[C@@]5(C)C[C@@H](OC(=O)c6cc7ccccc7oc6=O)[C@H](OC(=O)c6cc7ccccc7oc6=O)C(C)(C)[C@@H]5CC[C@]43C)[C@@H]2C1 [Compound 10]	200 to 202	19.2 ± 4.9	21.6 ± 3.2	4.2 ± 1.1	40.8 ± 3.2%	55.0 ± 1.4	greater than 70%	negative Rh123 staining	18.1 ± 3.0	22.9 ± 3.8	5.7 ± 0.8	41.0 ± 1.7%	53.4 ± 2.9	greater than 70%	greater than 70%
CC1(C)CC[C@]2(C(=O)NCCCNC(=O)c3cc4ccccc4oc3=O)CC[C@]3(C)C(=CC[C@@H]4[C@@]5(C)C[C@@H](O)[C@H](O)C(C)(C)[C@@H]5CC[C@]43C)[C@@H]2C1 [Compound 1, 2α,3β-Dihydroxy-N-(3′-(2″-oxo-2″H-chromene-3″-carboxamido)propyl)olean-12-en-28-amide]	69 to 71	50.1 ± 4.5	19.4 ± 4.8	1.8 ± 0.4	69.5 ± 2.3%	28.8 ± 2.8		negative Rh123 staining	48.5 ± 2.8	19.4 ± 4.2	1.7 ± 0.4	67.9 ± 1.5%	30.5 ± 1.9		greater than 70%
CC1(C)CC[C@]2(C(=O)NCCCNC(=O)/C=C/c3ccc(O)cc3)CC[C@]3(C)C(=CC[C@@H]4[C@@]5(C)C[C@@H](O)[C@H](O)C(C)(C)[C@@H]5CC[C@]43C)[C@@H]2C1 [Compound 7, 2α,3β-Dihydroxy-N-(3′-((E)-3″-(4‴-hydroxyphenyl)acrylamido)propyl)olean-12-en-28-amide]	123 to 125	57.4 ± 4.3	18.6 ± 3.2	2.2 ± 0.6	75.9 ± 2.0% and 76%	21.9 ± 1.3	greater than 70%		39.0 ± 4.1	18.6 ± 0.1	3.1 ± 0.6	57.6 ± 3.2%	39.3 ± 3.5	greater than 70%	greater than 70%
CC1(C)CC[C@]2(C(=O)NCCCNC(=O)Cc3cc(=O)oc4cc(O)ccc34)CC[C@]3(C)C(=CC[C@@H]4[C@@]5(C)C[C@@H](O)[C@H](O)C(C)(C)[C@@H]5CC[C@]43C)[C@@H]2C1 [Compound 4, 2α,3β-Dihydroxy-N-(3′-(2″-(7‴-hydroxy-2‴-oxo-2‴H-chromen-4‴-yl)acetamido)propyl)olean-12-en-28-amide]	143 to 145	48.5 ± 3.8	20.1 ± 5.3	1.9 ± 0.2	68.5 ± 1.6%	29.7 ± 1.3	greater than 70%	negative Rh123 staining	74.9 ± 2.6	10.5 ± 1.4	0.7 ± 0.0	85.4 ± 3.0% and 85%	14.0 ± 3.9	greater than 70%	greater than 70%

Reference: PMC8476055, “Synthesis and Biological Activity of Triterpene–Coumarin Conjugates” (Journal of Natural Products, 2021)
